In patent US4524135A:
In brackets after ≈: the same amount, converted by molar mass. Several values for one entry are separate records, joined by “and”; a condition that tells them apart may be missing. Equal values may be shown once.

Columns and labels:
[1] = tested on: Staphylococcus epidermidis EPI1; conditions: agar dilution
[2] = tested on: Staphylococcus aureus X1.1; test: Agar-dilution test
[3] = tested on: Streptococcus Group D X66; test: Agar-dilution test
[4] = tested on: Staphylococcus aureus ATCC 6738P; test: Agar-plate disc-diffusion test; type: cell-based; conditions: 1 mg/ml suspension in water, 7-mm disc, 24-48 hours at 25-37° C.
[5] = Toxicity in mice; conditions: mouse, in vivo, iv, administered intravenously
Excerpt: | ^a Administered intravenously

[6] = tested on: Streptococcus Group 9960; conditions: agar dilution
[7] = tested on: Staphylococcus epidermidis EPI2; test: Agar-dilution test
[8] = tested on: Bacillus subtilis ATCC 6633; test: Agar-plate disc-diffusion test; type: cell-based; conditions: 1 mg/ml suspension in water, 7-mm disc, 24-48 hours at 25-37° C.
[9] = tested on: Streptococcus pyogenes C203; test: Agar-dilution test
[10] = tested on: Streptococcus pneumoniae Park I; test: Agar-dilution test; type: cell-based
[11] = tested on: Staphylococcus aureus V41; test: Agar-dilution test; type: cell-based; conditions: penicillin-resistant strain
[12] = tested on: Micrococcus luteus ATCC 9341; test: Agar-plate disc-diffusion test; type: cell-based; conditions: 1 mg/ml suspension in water, 7-mm disc, 24-48 hours at 25-37° C.
[13] = tested on: Staphylococcus aureus X400; conditions: agar dilution; methicillin-resistant strain
[14] = tested on: Staphylococcus aureus; test: Experimental bacterial infection in mice; type: in vivo; conditions: subcutaneous, two doses
Excerpt: (§1) The results of in vivo tests to evaluate the effectiveness of the derivatives against experimental bacterial infections in mice are given in Table III. […] 81, 233-235 (1961)].

[15] = tested on: Streptococcus pyogenes; test: Experimental bacterial infection in mice; type: in vivo; conditions: two doses
Excerpt: as §1

Compound | MIC [1] | MIC [2] | MIC [3] [µg/mL] | Size of Zone of Inhibition [4] [mm] | LD50 [5] [mg/kg] | MIC [6] [µg/mL] | MIC [7] | Size of Zone of Inhibition [8] [mm] | Size of Zone of Inhibition ([8]; grown on minimal nutrient agar) [mm] | MIC [9] | MIC [10] | MIC [11] | Size of Zone of Inhibition [12] [mm] | MIC [13] | ED50 [14] | ED50 ([15]; oral) [mg/kg × 2] | ED50 ([15]; subcutaneous) [mg/kg × 2]
CCCCCCCCCC(=O)N[C@@H](Cc1c[nH]c2ccccc12)C(=O)N[C@@H](CC(N)=O)C(=O)N[C@@H](CC(=O)O)C(=O)N[C@@H]1C(=O)NCC(=O)N[C@@H](CCCN)C(=O)N[C@@H](CC(=O)O)C(=O)N[C@H](C)C(=O)N[C@@H](CC(=O)O)C(=O)NCC(=O)N[C@H](CO)C(=O)N[C@@H]([C@H](C)CC(=O)O)C(=O)N[C@@H](CC(=O)c2ccccc2N)C(=O)O[C@@H]1C [Example 6] | 2 µg/mL and 1 µg/mL | 1 µg/mL and 0.5 µg/mL | 16 (≈ 9.87 µM) | 24 | > 300 | 2 (≈ 1.23 µM) | 1 µg/mL and 0.5 µg/mL | 20 | 29 | 0.25 µg/mL and 0.125 µg/mL | 1 µg/mL and 0.5 µg/mL | 1 µg/mL and 0.5 µg/mL | 22 | 2 µg/mL and 1 µg/mL | 0.28 mg/kg × 2 | 66 | 0.03
CCCCCCCCCC(=O)N[C@@H](Cc1ccccc1)C(=O)N[C@@H](Cc1c[nH]c2ccccc12)C(=O)N[C@@H](CC(N)=O)C(=O)N[C@@H](CC(=O)O)C(=O)N[C@@H]1C(=O)NCC(=O)N[C@@H](CCCN)C(=O)N[C@@H](CC(=O)O)C(=O)N[C@H](C)C(=O)N[C@@H](CC(=O)O)C(=O)NCC(=O)N[C@H](CO)C(=O)N[C@@H]([C@H](C)CC(=O)O)C(=O)N[C@@H](CC(=O)c2ccccc2N)C(=O)O[C@@H]1C [Example 7, NTrp-[N-(n-Decanoyl)-L-phenylalanyl]-A-21978C Nucleus] | 1 µg/mL (≈ 0.566 µM) | 0.5 µg/mL (≈ 0.283 µM) | 8 (≈ 4.53 µM) | 30 | 600 | 2 (≈ 1.13 µM) | 0.5 µg/mL (≈ 0.283 µM) | 22 | 31 | 0.25 µg/mL (≈ 0.141 µM) | 0.5 µg/mL (≈ 0.283 µM) | 0.5 µg/mL (≈ 0.283 µM) | 24 | 1 µg/mL (≈ 0.566 µM) | 0.7 mg/kg × 2 and 0.98 mg/kg × 2 | > 200 | 0.39
CCCCCCCCCCCCOc1ccc(C(=O)N[C@@H](Cc2c[nH]c3ccccc23)C(=O)N[C@H](CC(N)=O)C(=O)N[C@@H](CC(=O)O)C(=O)N[C@@H]2C(=O)NCC(=O)N[C@@H](CCCN)C(=O)N[C@@H](CC(=O)O)C(=O)N[C@H](C)C(=O)N[C@@H](CC(=O)O)C(=O)NCC(=O)N[C@H](CO)C(=O)N[C@@H]([C@H](C)CC(=O)O)C(=O)N[C@@H](CC(=O)c3ccccc3N)C(=O)O[C@@H]2C)cc1 [Example 8, NTrp -p-(n-dodecyloxy)benzoyl-A-21978C Nucleus] | 4 µg/mL (≈ 2.28 µM) | 1 µg/mL (≈ 0.57 µM) | 2 (≈ 1.14 µM) | 20 | 67.5 | 1 (≈ 0.57 µM) | 2 µg/mL (≈ 1.14 µM) | 13 | 20 | 0.25 µg/mL (≈ 0.142 µM) |  | 1 µg/mL (≈ 0.57 µM) | 18 | 2 µg/mL (≈ 1.14 µM) | 3.35 mg/kg × 2 | > 200 | 0.31
